# Laboratory results: ChEMBL document CHEMBL1139783, “Cyclonatsudamine A, a new vasodilator cyclic peptide from Citrus natsudaidai” (2007)
# The source made the active and inactive calls. No cut-off for these calls is given here. Where a SMILES comes first, the peptide text is derived from it.
# Columns and labels:
# Aorta [1] = experiment: Inhibition of drug-induced vasorelaxation in rat aorta precontracted with norepinephrine in presence of nitric oxide synthase inhibitor L-NAME; assay type: functional, tissue-based
# Aorta [2] = experiment: Vasorelaxation effect on norepinephrine-induced contractions in rat aorta with endothelium at 0.1 uM; assay type: functional; set-up: scale not given: the % may be the effect or the level left
# Aorta [3] = experiment: Vasorelaxation effect on norepinephrine-induced contractions in rat endothelium-denuded aorta; assay type: functional, tissue-based
# Aorta [4] = experiment: Vasorelaxation effect on norepinephrine-induced contractions in rat aorta with endothelium at 100 uM; assay type: functional; set-up: scale not given: the % may be the effect or the level left
smiles,measurement,setting,value
CC(C)C[C@@H]1NC(=O)[C@H](Cc2ccc(O)cc2)NC(=O)CNC(=O)[C@H](CO)NC(=O)[C@@H]2CCCN2C(=O)[C@@H]2CCCN2C(=O)[C@H](CC(C)C)NC1=O [CYCONATSUDAMINE A] (cyclo(GYLLPPS)),Activity,Aorta [1],Active
same,Activity,Aorta [2],40%
same,Activity,Aorta [3],inactive
same,Activity,Aorta [4],80%
